Source: paper PMC9133232 (Cell chemical biology, 2022)
Read-outs that look alike come from different tables or passages of the source.

Experiments:
HCMV C-A (C161) [1] = molecular target: T1, HCMV C-A (C161) (Human cytomegalovirus, UniProt P16753, A143V/A209V/C138A/C202A/C84A/C87A); type: binding; conditions: intact protein LC/MS
HCMV C-A [2] = molecular target: T2, HCMV C-A (Human cytomegalovirus, UniProt P16753, A143V/A209V/C138A/C202A/C84A/C87A); test: biochemical
WT HCMV Pr = molecular target: T3, WT HCMV Pr (Human cytomegalovirus, UniProt P16753, A143V/A209V); test: biochemical; type: biochemical
T3 sequence (P16753 1-256 A143V/A209V): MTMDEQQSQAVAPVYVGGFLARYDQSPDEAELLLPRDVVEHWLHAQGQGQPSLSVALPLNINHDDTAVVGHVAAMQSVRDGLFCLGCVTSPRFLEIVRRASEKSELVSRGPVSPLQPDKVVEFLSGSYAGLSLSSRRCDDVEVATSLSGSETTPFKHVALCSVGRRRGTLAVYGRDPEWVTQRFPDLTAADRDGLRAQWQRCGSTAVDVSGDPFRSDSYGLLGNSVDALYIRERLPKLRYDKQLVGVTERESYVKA

HCMV C-A [3] = molecular target: T2, HCMV C-A; conditions: for t1/2 HCMV C-A: 0.693 divided by kinact
[4] = molecular target: HCMV C-A (HCMV Pr C84A, C87A, C138A, C202A) (Human cytomegalovirus, UniProt P16753, A143V/A209V/C138A/C202A/C84A/C87A); test: biochemical
HSV1 Pr = HSV1 Pr (Human herpesvirus 1, UniProt P10210); test: Fluorogenic substrate inhibition assay, HSV1 Pr; type: biochemical
EBV Pr = test: Fluorogenic substrate inhibition assay, EBV Pr; type: biochemical, Epstein-Barr virus; conditions: read-out: IC50 EBV Pr; one hour incubation
HCMV C-A S225M [5] = molecular target: T4, HCMV C-A S225M (Human cytomegalovirus, UniProt P16753, A143V/A209V/C138A/C202A/C84A/C87A/S225M); test: KI and kinact determination, HCMV C-A S225M; type: biochemical
HCMV C-A (C161) [6] = molecular target: T1, HCMV C-A (C161); type: binding; conditions: 5 μM protein in Tris, 50 μM compound, overnight
HCMV C-A S225M [7] = molecular target: T4, HCMV C-A S225M; test: Time-course inhibitor labeling by intact protein LC/MS, HCMV C-A S225M dimer; type: binding; conditions: time course in the absence of DTT
HCMV C-A [8] = molecular target: T2, HCMV C-A; test: Time-course inhibitor labeling by intact protein LC/MS, HCMV C-A; type: binding; conditions: time course in the absence of DTT
HFF-1 cells [9] = test: Cytotoxicity determined in parallel to antiviral EC50; conditions: over the course of the antiviral assay
HFF-1 cells [10] = test: Cell death three days post-reinfection; type: cell-based, human
HCMV C-A [11] = molecular target: T2, HCMV C-A; test: In-gel fluorescence competition assay in HFF-1 cell lysate; type: binding
HCMV C-A [12] = molecular target: T2, HCMV C-A; test: In-gel fluorescence direct detection assay in HFF-1 cell lysate; type: binding; conditions: read-out: EC50 reactivity with HCMV C-A (direct in-gel fluorescence); HFF-1 cell lysates
[13] = molecular target: Human Cytomegalovirus Protease C84A, C87A, C138A, C202A, S225M (human cytomegalovirus) (UniProt P16753); test: SEC

| Compound | Ki (HCMV C-A [2]) [µM] | IC50 (WT HCMV Pr) [µM] | kinact HCMV C-A (HCMV C-A [3]) [min⁻¹] | kinact/KI HCMV C-A (HCMV C-A [3]) [M⁻¹ s⁻¹] | t1/2 HCMV C-A (HCMV C-A [3]) [min] | IC50 [4] [µM] | IC50 (HSV1 Pr) [µM] | IC50 (EBV Pr) [µM] | also measured |
| --- | --- | --- | --- | --- | --- | --- | --- | --- | --- |
| O=C(CCl)Cn1cc(-c2ccccc2)nn1 [Compound 31, 1-Chloro-3-(4-phenyl-1H-1,2,3-triazol-1-yl)propan-2-one] | 38 | 33 | 0.026 | 11.3 | 26 | 25 | – | – | reactivity with C161 (labeling of HCMV C-A) (HCMV C-A (C161) [1]): showed reactivity with C161 |
| O=C(CCl)Cn1cc(-c2ccc([N+](=O)[O-])cc2)nn1 [Compound 34, 1-Chloro-3-(4-(4-nitrophenyl)-1H-1,2,3-triazol-1-yl)propan-2-one] | – | 6 | – | – | – | 22 | 51 | – | – |
| N#Cc1ccc(-c2cn(CC(=O)CCl)nn2)cc1 [Compound 35, 4-(1-(3-Chloro-2-oxopropyl)-1H-1,2,3-triazol-4-yl)benzonitrile] | – | 11 | – | – | – | 33 | 207 | 21 | – |
| O=C(CCl)Cn1cc(-c2ccc(Br)cc2)nn1 [Compound 36, 1-(4-(4-Bromophenyl)-1H-1,2,3-triazol-1-yl)-3-chloropropan-2-one] | – | 5 | – | – | – | 25 | 35 | 17 | – |
| O=C(CCl)Cn1cc(-c2ccc(Cl)cc2)nn1 [Compound 37, 1-Chloro-3-(4-(4-chlorophenyl)-1H-1,2,3-triazol-1-yl)propan-2-one] | – | 5 | – | – | – | 32 | 98 | 11 | – |
| O=C(CCl)Cn1cc(-c2cccc(Cl)c2)nn1 [Compound 38, 1-Chloro-3-(4-(3-chlorophenyl)-1H-1,2,3-triazol-1-yl)propan-2-one] | – | 6 | – | – | – | 30 | 145 | 8 | – |
| CC(=O)Nc1cccc(-c2cn(CC(=O)CCl)nn2)c1 [Compound 39, N-(3-(1-(3-Chloro-2-oxopropyl)-1H-1,2,3-triazol-4-yl)phenyl)acetamide] | – | 18 | – | – | – | 46 | 188 | 52 | – |
| CNC(=O)OCc1c(-c2ccccc2)nnn1CC(=O)CCl [Compound 41, (1-(3-Chloro-2-oxopropyl)-4-phenyl-1H-1,2,3-triazol-5-yl)methyl methylcarbamate] | – | 68 | – | – | – | 60 | > 1000 | 7 | – |
| CN(C)C(=O)OCc1c(-c2ccccc2)nnn1CC(=O)CCl [Compound 42, (1-(3-Chloro-2-oxopropyl)-4-phenyl-1H-1,2,3-triazol-5-yl)methyl dimethylcarbamate] | – | 33 | – | – | – | 101 | > 1000 | – | – |
| O=C(CCl)Cn1nnc(-c2ccccc2)c1COC(=O)NCc1ccccc1 [Compound 43, (1-(3-Chloro-2-oxopropyl)-4-phenyl-1H-1,2,3-triazol-5-yl)methyl benzylcarbamate] | 9 | 4 | 0.024 | 45 | 29 | 33 | > 1000 | 2 | kinact HCMV C-A S225M (HCMV C-A S225M [5]): 0.011 min⁻¹; labeling of HCMV C-A at C161 (HCMV C-A (C161) [6]): 100%; final protein labeling HCMV C-A S225M (HCMV C-A S225M [7]): 100%; final protein labeling HCMV C-A (HCMV C-A [8]): 100%; CC50 in parallel to antiviral EC50 (HFF-1 cells [9]): 11 μΜ; cell death three days post-reinfection (HFF-1 cells [10]): minimal; EC50 (HCMV C-A [11]): 3 µM |
| COCCNC(=O)OCc1c(-c2ccccc2)nnn1CC(=O)CCl [Compound 44, (1-(3-Chloro-2-oxopropyl)-4-phenyl-1H-1,2,3-triazol-5-yl)methyl (2-methoxyethyl)carbamate] | 29 | 13 | 0.022 | 12.7 | 31 | 54 | 840 | 12 | – |
| O=C(CCl)Cn1nnc(-c2ccccc2)c1COC(=O)N1CCOCC1 [Compound 45, (1-(3-Chloro-2-oxopropyl)-4-phenyl-1H-1,2,3-triazol-5-yl)methyl morpholine-4-carboxylate] | 26 | 53 | 0.020 | 12.8 | 35 | 66 | 670 | 4 | – |
| O=C(CCl)Cn1nnc(-c2ccccc2)c1COC(=O)NCCN1CCOCC1 [Compound 46, (1-(3-Chloro-2-oxopropyl)-4-phenyl-1H-1,2,3-triazol-5-yl)methyl (2-morpholinoethyl)carbamate] | – | – | – | – | – | 182 | – | – | – |
| O=C(CCl)Cn1nnc(-c2ccccc2)c1COC(=O)NCCCN1CCCC1=O [Compound 47, (1-(3-Chloro-2-oxopropyl)-4-phenyl-1H-1,2,3-triazol-5-yl)methyl (3-(2-oxopyrrolidin-1-yl)propyl)carbamate] | 21 | – | 0.016 | 12.7 | 44 | 135 | – | – | – |
| C#CCNC(=O)OCc1c(-c2ccccc2)nnn1CC(=O)CCl [Compound 48] | – | – | – | – | – | – | – | – | EC50 (HCMV C-A [12]): 4 µM; IC50 (WT HCMV Pr; read-out: IC50 WT HCMV Pr, one hour incubation): 8 µM |
| Human Cytomegalovirus Protease C84A, C87A, C138A, C202A, S225M (from UniProt P16753 1-256) (enzyme) | – | – | – | – | – | – | – | – | stoichiometry N [13]: 2 |
